The test system of data set [1] is Porcine aortic endothelial cells. The settings on record: 25 mg/ml, in words; cited from earlier work.
For data set [2], the system named is clot formation induced by API in human blood. The settings on record: for Clot formation / clotting time versus no additives: 0.01 and 0.1 mg/ml, in words. As to the method:
Blood was drawn from four healthy volunteers into Vacutainer™ tubes containing citrate. Whole blood (980 μl) was incubated with 2 μl of API at 37° C. in polypropylene sample cups in a ReoRox™ rheometer (Global Haemostasis International, Gothenburg, Sweden). […] Every 6 s, the cup was set into free torsional oscillation around its vertical axis, and the damping and frequency of the oscillation was registered. Clotting time was identified as the point of maximal damping.

Data set [3] has as its system IBMIR triggered by API in fresh human blood. Conditions: 1 mg/ml, 60 min API perfusion. As for the experimental part:
This protocol is basically performed as previously described with some modifications. In general words, loops made of PVC (diameter 6.3 mm, length 390 mm), whose inner surface was furnished with immobilized heparin, were used. The tubing was held together with a specially designed heparinized connector. A circular loop was formed when the ends of the connector were tightly pushed into the lumen of the tubing ends. A rocking apparatus, placed in a 37° C. incubator, was used to generate blood flow inside the loops. The loops were rocked at a setting that prevented the blood from coming in contact with the connectors.
Seven 60-min islet experiments were performed, using API isolated from four different pigs. […] For each experiment, one loop containing fresh human blood and saline without API was included as a control. […] Concurrently, pre-incubation of human blood with 1 mg/ml of LMW-dextran, which was not sulfated, was tested in five experiments. In each experiment, 7 ml of fresh human blood from the same donor was added to each loop. […] Thereafter, the loops were opened, and 100 μl of saline with or without 5 μl of API (approximately 5,000 IEQ) was added to the loops and followed by another 60-min incubation on the rocking device at 37° C. Blood glucose levels were measured with a glucometer (Glucometer Elite; Bayer Diagnostics, Leverkusen, Germany) before the perfusion.
After every perfusion, the loop contents were filtered through 70 μm-diameter filters (Filcons, Cuptype; DAKO, Denmark). Both macroscopic blood clots and tissue recovered on the filters were snap-frozen in isopentane for immunohistochemical staining. The remaining filtered blood was collected in 4.1 mM EDTA (final concentration) and used for hematological analysis (platelets, lymphocytes, monocytes, and granulocytes) and assays of coagulation activation (thrombin-antithrombin [TAT], factor XIa-antithrombin complexes [FXIa-AT], and factor XIIa-antithrombin complexes [FXIIa-AT]), fibrinolysis activation (plasmin-alpha 2 antiplasmin complexes [PAP]), complement activation (C3a and sC5b-9), and C1 esterase inhibitor activation (factor XIa-C1 esterase inhibitor [FXIa-C1 INH], factor XIIa-C1 esterase inhibitor [FXIIa-C1 INH]). Samples taken at 0, 15, and 30 min were also analyzed. In 0-min samples, the blood was not added to the tubing loop but was instead transferred immediately to the EDTA-containing tubes. The blood samples were centrifuged at 4° C. at 3290×g for 20 min, and the plasma was collected and stored at −70° C. until analyzed.
Platelet counts and differential leukocyte counts were analyzed on a Coulter ACT-diff analyzer (Beckman Coulter, Fla., USA) using EDTA-treated blood. TAT and PAP were quantified using commercially available enzyme immunoassays (EIA) kits (Enzygnost TAT, Behringswerke, Marburg, Germany; Imuclone® PAP, American Diagnostica Inc., Greenwich, USA). FXIa-AT, FXIIa-AT, FXIa-C1 INH, and FXIIa-C1 INH were analyzed according to the method of Sanchez et al.. C3a was analyzed as previously described by Nilsson Ekdahl et al., and sC5b-9 was analyzed using a modification of the EIA described by Mollnes et al..

In data set [4] the test system is STZ-induced diabetic mice. Conditions: intraperitoneal, intrahepatic islets, in words; cited from earlier work.
The next data set has as its system pig lungs. The settings on record: 2 mg/ml; HAR after 30 min without; cited from earlier work.
The conditions of data set [5]: cited from earlier work.
[6] abbreviates: continuous injection about 45 mg/hour, in words.

Where two headings read alike, the source gives them in different places.

In the case of CMDB25 dextran sulfate, in data set [1], the “Complement activation and cytolytic complex deposition on the cells” value is recorded as “inhibited”.

Take “High molecular weight dextran sulfate [HMW-DS]”: the “Clot formation / clotting time versus no additives” value in data set [2] is on record as “inhibited clot formation only at 0.1 mg/ml”. Also, the Clotting time in data set [2] (experiment 1, 0.01 mg/ml) is listed as 15.8 min; in data set [2] (experiment 1, 0.1 mg/ml), above 60 min; in data set [2] (experiment 2, 0.01 mg/ml), 36.9 min; in data set [2] (experiment 2, 0.1 mg/ml), above 60 min; in data set [2] (experiment 3, 0.01 mg/ml), 21.0 min; in data set [2] (experiment 3, 0.1 mg/ml), above 60 min. The Clotting time in data set [2] (experiment 4, 0.01 mg/ml) was 38.3 min; in data set [2] (experiment 4, 0.1 mg/ml), above 60 min.

“Low molecular weight dextran [LMW-D, reference compound]”: the “Clot formation / clotting time versus no additives” value in data set [2] is on record as “extended the clotting time to only a minor degree”. The substance also had a Clotting time in data set [2] (experiment 1, 0.01 mg/ml) of 19.2 min. In data set [2] (experiment 1, 0.1 mg/ml), this substance displayed a Clotting time of 25.2 min. This substance gave a Clotting time in data set [2] (experiment 2, 0.01 mg/ml) of 11.3 min. The same substance yielded a Clotting time in data set [2] (experiment 2, 0.1 mg/ml) of 25.8 min. Besides, the “Effect on IBMIR” value in data set [3] (in words) is “only a marginal effect”. In data set [3] (Table 4 comparison, n = 5), the “C3a” value was 1490.3 ± 406.4 ng/mL, the “FXIa-AT” value was 1.09 ± 0.08 µmol/L, the “Granulocytes (×10^9/l)” value is recorded as 1.90 ± 0.43 ×10^9/l and the “Lymphocytes (×10^9/l)” value is listed as 2.14 ± 0.32 ×10^9/l. Also, in data set [3] (Table 4 comparison, n = 5), the “Monocytes (×10^9/l)” value was 0.29 ± 0.08 ×10^9/l, the “Platelets (×10^9/l)” value is given as 44.9 ± 18.7 ×10^9/l, the “TAT” value is 4429.2 ± 2002.5 µg/mL and the “sC5b-9 (AU/ml)” value is listed as 157.3 ± 19.1 AU/ml.

With Native dextran, the “Complement activation and cytolytic complex deposition on the cells” value in data set [1] is reported as “no such an effect”.

Consider dextran sulfate, for which the “Effect of dextran sulfate alone on hyperglycemia” value in data set [4] is given as “some beneficial effect in a few mice”. Moreover, the Lung survival result in the data set with pig lungs is “about 200 min”.

Regarding “dextran sulfate [dextran sulfate (MW 8 000 Da)]”, in data set [5] (continuous injection about 45 mg/hour for 2-3 weeks), the Blood concentration entry is reported as “approximately 0.01 mg/ml”. For the same substance, in data set [5] (setting [6]), the Alopecia result is listed as “reported in about half of the patients” and the Thrombocytopenia entry is listed as “observed after 3 days treatment”.

Regarding “high molecular weight dextran [HMW-D, reference compound]”, the “Clot formation / clotting time versus no additives” value in data set [2] is on record as “extended the clotting time to only a minor degree”. Also, the Clotting time is reported as 19.8 min in data set [2] (experiment 1, 0.01 mg/ml); 14.2 min in data set [2] (experiment 1, 0.1 mg/ml); 13.8 min in data set [2] (experiment 2, 0.01 mg/ml); 33.2 min in data set [2] (experiment 2, 0.1 mg/ml).

The record behind these values is patent publication US8906884B2, “Method of treating graft-rejection using dextran sulfate” (TX Medic AB, priority 2002, dated 2014).
